Results on twelve compounds are retold here after patent US20250059140A1, “C19 D[…], AND PREPARATION METHOD AND APPLICATION THEREOF” (SOUTHWEST JIAOTONG UNIVERSITY, priority 2022, published 2025).

The test system of one assay is RyR2. The assay is described as follows: qPCR transcriptional level of RyR2 in CoCl2-hypoxic H9c2 cells. Format: cell-based. Conditions: CoCl2-induced hypoxia in H9c2 cells, FIG. 2C. The method, then:
(§1) FIGS. 2B-F show transcriptional level results (detected by q-PCR) of calcium channel-related indicators in cardiomyocytes, where 2B: DHPR; 2C: RyR2; 2D: SERCA2a; 2E: NCX; and 2F: NHE.
(§2) In FIGS. 2A-F, the detection is performed in triplicate; ##P<0.01, ###P<0.001, and ####P<0.0001, indicating the significant difference from the control group; and *P<0.05, **P<0.01, ***P<0.001, and ****P<0.0001, indicating the significant difference from the CoCl2 group.
(§3) When cells experienced hypoxic injury, a large amount of reactive oxygen species (ROS) was released. DCFH-DA probe was used to label ROS in H9c2 cells, and 900 μM CoCl2 and different concentrations of cammconine (12.5, 25, 50 PM) were administered to detect the changes in ROS by flow cytometry and fluorescence inverted microscopy. […] Changes in ATPase activity after treating the cells with myocardial hypoxia with cammaconine were detected by a kit. […] Changes in the transcriptional level of the cardiomyocyte hypoxia key indicator HIF-1α and calcium cycle-related indicators were detected by qPCR.
A general note: Quantitative PCR measures a nucleic acid by following its amplification.

For a further assay, the system named is HIF-1α. Nature of the assay: qPCR transcriptional level of HIF-1α in CoCl2-hypoxic H9c2 cells. It counts as cell-based. Conditions: CoCl2-induced hypoxia in H9c2 cells, FIG. 2A. How it is done:
as §2, §3

The next assay relates to NHE. Nature of the assay: qPCR transcriptional level of NHE in CoCl2-hypoxic H9c2 cells. Format: cell-based. Conditions: CoCl2-induced hypoxia in H9c2 cells, FIG. 2F. How it is done: as §1, §2, §3
For assay [1], the system named is reactive oxygen species (ROS) in H9c2 cells. The assay is described as follows: ROS detection with DCFH-DA probe in CoCl2-hypoxic H9c2 cells. Format: cell-based. Conditions: 12.5, 25, 50 PM; 900 μM CoCl2; flow cytometry and fluorescence microscopy. The method, then:
FIGS. 1D-I show fluorescence detection results of reactive oxygen species (ROS) of different groups of H9c2 cells (scale bar: 20 μm), where 1D: control group; 1E: CoCl2 group; 1F: 50 μM-Trimetazidine group; 1G: 12.5 μM-Cammaconine group; 1H: 25 μM-Cammaconine group; and 11:50 μM-Cammaconine group;
as §3
(In flow cytometry, cells or beads pass a laser one at a time.)

For a further assay, the system named is Ca2+/Mg2+-ATPase. The assay is described as follows: Ca2+/Mg2+-ATPase activity in hypoxic cardiomyocytes (kit). Conditions: concentration of 25 mol/L; CoCl2-induced hypoxia in H9c2 cells. It counts as cell-based. How it is done:
(§4) FIGS. 1B-C show an effect of the compound 1 on the Na^+/K^+-ATPase specific activity and Ca^2+/Mg^2+-ATPase activity of the hypoxic cardiomyocytes, where the test is performed in triplicate; ##P<0.01, ###P<0.001, and ####P<0.0001, indicating the significant difference from the control group; and *P<0.05, **P<0.01, ***P<0.001, and ****P<0.0001, indicating the significant difference from the CoCl2 group;
as §3

Another assay relates to isolated bullfrog hearts. Nature of the assay: Cardiotonic effect on isolated bullfrog hearts in vitro. Conditions: for Cardiotonic effect compared with the positive control: 0.005 mol/L versus positive control at 0.01 mol/L; for activation at 5000 µM: isolated bullfrog heart, tested concentration 0.005 mol/L; for Average increase rate (%) (average amplitude growth rate of the frog heart) / Results (class of heart-strengthening effect): positive control. How it is done:
The preparation of in vitro isolated bullfrog heart was carried out according to the method recorded in the literature (Ding Hong, Experimental Pharmacology, pp. 504-506, Science Publishing House, 2008) as follows. Bullfrogs weighing 150-200 g, male and female, were used herein. At room temperature, the brain and spinal cord of the bullfrogs was destroyed with a metal probe, and then the chest wall of the bullfrogs was incised to expose the heart and the right aorta and the left aorta were each threaded with a wire. The right aorta was knotted directly, and the left aorta was cut with scissors in a “V” shaped incision. A frog heart cannula containing a small amount of Ringer's solution was inserted into the ventricle. The wire of the left aorta was attached and secured to the lateral hook of the cannula. The blood in the heart tube of the bullfrogs was repeatedly flushed with fresh Ringer's solution until the fluid was clear and colorless. The heart cannula was inserted into the ventricle and perfused with Ringer's solution. The bullfrog heart cannula was fixed on the iron stand with a clamp. The muscle tension transducer was fixedly arranged under the bullfrog heart cannula, and the isolated bullfrog heart was connected to the muscle tension transducer via a bullfrog heart clip and a wire. The volume of solution in the cannula was adjusted by 1.0 mL and the subject compound or an equivalent volume of a solvent was added to the cannula. The subject compound was evaluated for cardiac activity on isolated perfused frog hearts, and heart rate and contraction amplitude were recorded.
The cardiotonic effects of compounds 1-10 provided in the present disclosure on isolated bullfrog hearts in vitro were investigated, with deacetylmaurolidine and mesaconitine as positive controls.
The tested concentration of compounds 1-10 was 0.005 mol/L, and the tested concentrations of the positive controls, i.e., mesaconitine and deacetylmaurolidine, were 0.01 mol/L and 0.0002 mol/L, respectively.

Another assay deals with Na+/K+-ATPase. Nature of the assay: Na+/K+-ATPase activity in hypoxic cardiomyocytes (kit). Conditions: concentration of 25 mol/L; CoCl2-induced hypoxia in H9c2 cells. Format: cell-based. The method, then: as §4, §3
The next assay relates to SERCA2a. Nature of the assay: qPCR transcriptional level of SERCA2a in CoCl2-hypoxic H9c2 cells. Conditions: CoCl2-induced hypoxia in H9c2 cells, FIG. 2D. Format: cell-based. The method, then:
as §1, §2, §3

For another assay, the system named is H9c2 cells. The assay is described as follows: H9c2 cell viability by MTT assay, CoCl2-induced myocardial hypoxia. It counts as cell-based. Conditions: concentration of 6.25-50 M, FIG. 1A. In general terms: Tetrazolium assays rely on reduction of a dye to a coloured formazan, in cell work by metabolically active cells.
The subject of a further assay is NCX. The assay is described as follows: qPCR transcriptional level of NCX in CoCl2-hypoxic H9c2 cells. Format: cell-based. Conditions: CoCl2-induced hypoxia in H9c2 cells, FIG. 2E. How it is done:
as §1, §2, §3

The next assay has as its system DHPR. The assay is described as follows: qPCR transcriptional level of DHPR in CoCl2-hypoxic H9c2 cells. It counts as cell-based. Conditions: CoCl2-induced hypoxia in H9c2 cells, FIG. 2B. The method, then:
as §1, §2, §3

[2] abbreviates: read-out: Average increase rate (%) (average amplitude growth rate of the frog heart).
The mark [3] stands for this setting: read-out: Results (class of heart-strengthening effect).
Where [4] appears, read: tested concentration 0.01 mol/L.
[5] abbreviates: tested concentration 0.0002 mol/L.

“Also recorded” adds a separate entry of the source. Read-outs that look alike come from different tables or passages of the source.

With `CCN1C[C@]2(CO)CC[C@H](OC)[C@@]34C5C[C@@H]6[C@@H](OC)C[C@@](O)(C5[C@H]6O)C(CC23)[C@@H]14` (stereo partly drawn) [Compound 1, cammaconine], the “mRNA level of RyR2” value with RyR2 is on record as “decreased”. Further, the “mRNA transcriptional level of HIF-1α” value with HIF-1α is listed as “decreased”. In addition, in the assay on NHE, the “mRNA level of NHE” value was “decreased”. Further, the “Levels of ROS in H9c2 cells” value in [1] is “significantly reduced”. The “Ca2+/Mg2+-ATPase activity” value in the assay on Ca2+/Mg2+-ATPase is “increase the enzyme activity”. In the assay with isolated bullfrog hearts, the “Cardiotonic effect compared with the positive control” value is listed as “better cardiotonic effect; also recorded: significantly enhanced”. Further, the activation at 5000 µM in the assay with isolated bullfrog hearts (setting [2]) was 118%; in the assay with isolated bullfrog hearts (setting [3]), greater than 60%. For the same compound, the “Na+/K+-ATPase activity” value in the assay on Na+/K+-ATPase was “increase the enzyme activity”. In addition, the “mRNA level of SERCA2a” value in the assay with SERCA2a is reported as “decreased”. Besides, the “Cardioprotective effect on H9c2 cells (cell viability, MTT)” value with H9c2 cells is reported as “certain cardioprotective effects”. The “mRNA level of NCX” value with NCX was “decreased”. Moreover, in the assay on DHPR, the “mRNA level of DHPR” value was “decreased”.

For `CO[C@H]1C[C@@]2(O)C3C(C[C@H]1[C@@H]3O)[C@]13C4CC2[C@H]1N(C)C[C@]4(CO)CC[C@@H]3OC` (stereo partly drawn) [Compound 2, N-deethyl-N-methyl cammaconine], in the assay with isolated bullfrog hearts, the “Cardiotonic effect compared with the positive control” value is reported as “better cardiotonic effect; also recorded: significantly enhanced”. For the same compound, the activation at 5000 µM was 159% with isolated bullfrog hearts (setting [2]) and greater than 60% in the assay on isolated bullfrog hearts (setting [3]).

As for `CO[C@H]1C[C@@]2(O)C3C(C[C@H]1[C@@H]3O)[C@]13C4CC2[C@H]1NC[C@]4(CO)CC[C@@H]3OC` (stereo partly drawn) [Compound 3, N-deethyl cammaconine], the activation at 5000 µM with isolated bullfrog hearts (setting [2]) is 36.8%; in the assay with isolated bullfrog hearts (setting [3]), 31 to 60%.

Turning to `CCN1C[C@]2(CO)CC[C@H](OC)[C@@]34C5C[C@@H]6[C@@H](OC)C[C@@](O)(C5[C@H]6OC)C(CC23)[C@@H]14` (stereo partly drawn) [Compound 4, scaconine], the “Cardiotonic effect compared with the positive control” value in the assay on isolated bullfrog hearts was “better cardiotonic effect; also recorded: significantly enhanced”. In addition, the results for the activation at 5000 µM in the assay with isolated bullfrog hearts (setting [2]) and in the assay with isolated bullfrog hearts (setting [3]) were 156% and greater than 60%, respectively.

`CCN1C[C@]2(CO)CC[C@H](OC)[C@@]34C5C[C@@H]6[C@@H](OC)C[C@@](OC)(C5[C@H]6O)C(CC23)[C@@H]14` (stereo partly drawn) [Compound 5, 8-O-methyl cammaconine]: the activation at 5000 µM was 33.6% in the assay with isolated bullfrog hearts (setting [2]) and 31 to 60% in the assay on isolated bullfrog hearts (setting [3]).

Take `CCN1C[C@]2(CO)CC[C@H](OC)[C@@]34C5C[C@@H]6[C@@H](OC)C[C@@](OC)(C5[C@H]6OC)C(CC23)[C@@H]14` (stereo partly drawn) [Compound 6, 8,14-O-dimethyl cammaconine]: the activation at 5000 µM with isolated bullfrog hearts (setting [2]) is 31.2%; with isolated bullfrog hearts (setting [3]) it was 31 to 60%.

Take `CCN1C[C@]2(CO)CC[C@H](OC)[C@@]34C5C[C@H]6[C@H](O)C5[C@](O)(C[C@@H]6O)C(CC23)[C@@H]14` (stereo partly drawn) [Compound 7, 16-demethyl cammaconine]: in the assay on isolated bullfrog hearts, the “Cardiotonic effect compared with the positive control” value is “better cardiotonic effect; also recorded: significantly enhanced”. The activation at 5000 µM in the assay with isolated bullfrog hearts (setting [2]) was 75.2%; in the assay on isolated bullfrog hearts (setting [3]), greater than 60%.

Take `CCO[C@]12C[C@H](OC)[C@H]3CC(C1[C@H]3O)[C@]13C4CC2[C@H]1N(CC)C[C@]4(CO)CC[C@@H]3OC` (stereo partly drawn) [Compound 8, 8-O-ethyl cammaconine]: the activation at 5000 µM in the assay on isolated bullfrog hearts (setting [2]) was 57.2%; in the assay with isolated bullfrog hearts (setting [3]), 31 to 60%.

For the compound `CCO[C@]12C[C@H](OC)[C@H]3CC(C1[C@H]3OC)[C@]13C4CC2[C@H]1N(CC)C[C@]4(CO)CC[C@@H]3OC` (stereo partly drawn) [Compound 9, 8-O-ethyl, 14-O-methyl cammaconine], the activation at 5000 µM was 21.8% in the assay with isolated bullfrog hearts (setting [2]) and 16 to 30% with isolated bullfrog hearts (setting [3]).

Consider `CO[C@H]1C[C@@]2(O)C3C(C[C@H]1[C@@H]3OC)[C@]13C4CC2[C@H]1N(C)C[C@]4(CO)CC[C@@H]3OC` (stereo partly drawn) [Compound 10, N-deethyl-N-methyl 14-O-methyl cammaconine], for which, in the assay with isolated bullfrog hearts, the “Cardiotonic effect compared with the positive control” value is “better cardiotonic effect; also recorded: significantly enhanced”. Besides, the activation at 5000 µM in the assay on isolated bullfrog hearts (setting [2]) is 148%; with isolated bullfrog hearts (setting [3]), greater than 60%.

Consider `COC[C@]12CN(C)[C@@H]3[C@@H]4[C@H](OC)[C@H]1[C@@]3([C@@H](OC)C[C@H]2O)[C@@H]1C[C@@]2(O)[C@H](OC(=O)c3ccccc3)[C@@H]1[C@]4(OC(C)=O)[C@@H](O)[C@@H]2OC` [Mesaconitine, mesaconitine, reference compound], for which, in the assay on isolated bullfrog hearts (setting [4]), the “Average increase rate (%) (average amplitude growth rate of the frog heart)” value was 70.7% and the “Results (class of heart-strengthening effect)” value is “Strong (>60% (+++, strong))”.

Consider “deacetylmaurolidine [reference compound]”, for which, in the assay on isolated bullfrog hearts (setting [5]), the “Average increase rate (%) (average amplitude growth rate of the frog heart)” value is 61% and the “Results (class of heart-strengthening effect)” value is “Strong (>60% (+++, strong))”.
